Data: patent US20260034200A1, “TOLEROGENIC PEPTIDES” (University of Birmingham, priority 2022, published 2026)
Ends that are not written are not given here.

Assays:
[1] = system: GAD65 P10-specific T-cell hybridomas; assay: T-cell hybridoma screen with Priess cells as APCs, IL-2 ELISA; type: cell-based, mouse; conditions: for epitope mapping by hybridoma response: 15-mers and truncated peptides, hybridomas SC3 and SC22, 48 h co-culture
Description: HLA-DR4 transgenic mice were injected subcutaneously with Complete Freund's Adjuvant (CFA) and 100 μg of GAD65 P10 30-mer. After 10 days, splenocytes were isolated and re-stimulated with GAD65 P10 30-mer for a further 4-5 days before fusion with hypoxanthine-aminopterin-thymidine (HAT) sensitive BW5147 cells using polyethylene glycol (PEG). Fused hybridomas were expanded in HAT selection media before antigen-specific screening. Co-cultures of 1×10^5 hybridomas and 2×10^5 Priess cells (an Epstein-Barr Virus (EBV) transformed DR4 (DRB1*04:01) expressing human cell line (ECACC 86052111)) as antigen presenting cells (APCs) were incubated for 48 h in a 96-well plate with peptide, whole GAD65 protein, or media only. Antigen-specific responses were determined by IL-2 secretion into culture supernatant by ELISA assay (BioLegend 431004). Hybridomas that proliferated in response to both GAD65 protein and GAD65 30-mer were single cell cloned by limiting dilution.
Six 15-mers that spanned the parent 30-mer amino acid sequence were generated by 3 amino acid shifts from the N-terminus toward the C-terminus.

[2] = Solubility in PBS; type: physicochemical
Description: Peptides were synthesized by GL Biochem (Shanghai) Ltd or Genscript (Leiden, The Netherlands). Peptides were >90% purity, resuspended from lyophilised powder in either 100% v/v dimethyl sulfoxide (DMSO) for 30-mers or PBS for soluble peptides. GAD65 protein was synthesised by Biologics Corporation. Purified protein derivative (PPD; Prionics; 7600060) was used at 300 IU/mL. Keyhole limpet haemocyanin (KLH; ThermoFisher Scientific; 77600) was used at 20 μg/mL.
Iterations designed around the core minimal epitope included retention of non-critical residues and/or addition of multiple lysine residues to both the N- and C-termini (FIG. 3E). […] Although P10.5.C.6K contains only the critical core epitope with additional lysine residues, the re-inclusion of the single non-critical alanine at the C-terminus (P10.5.C+1.6K), increased the potency of the single-clone hybridoma response by 10-fold (FIG. 3F).

[3] = system: MHC class II molecules on fixed or non-fixed HLA-DR4 transgenic mouse splenocytes (hybridoma SC3 readout); assay: Fixed APC T-cell hybridoma screen; type: cell-based; conditions: co-culture with formaldehyde fixed and non-fixed HLA-DR4 splenocytes, 48 h
Description: Splenocytes from HLA-DR4 transgenic mice were formaldehyde fixed by the following protocol performed at room temperature; 5 min incubation with 0.5% w/v formaldehyde in PBS at 1×10^6 cells/mL quenched by addition of an equal volume of 0.4 M glycine in PBS solution for a further 5 min, before three washes with cold PBS. T-cell hybridoma screens were set up using 1×10^5 hybridomas and either 2×10^5 formaldehyde fixed APCs or 2×10^5 non-fixed APCs for 48 h co-culture with stimulant or control and responses measured by IL-2 secretion.
(§1) The next step was to test if GAD65 P10.5.C+1.6K (P10Sol; SEQ ID NO 23) could bind to: (i) MHC class II molecules without antigen processing and, (ii) to steady-state CD11c^+ APCs. These properties are good indicators of whether a peptide can induce tolerance and be characterised as an apitope (Shepard et al., 2021). Formaldehyde fixation of splenocytes inhibits antigen processing and so to test whether GAD65 P10Sol could bind directly to cell-surface MHC class II without antigen processing, GAD65 P10-specific hybridoma SC3 was co-cultured with fixed or non-fixed splenocytes from HLA-DR4 transgenic mice. […] To test whether P10Sol could bind to steady-state CD11c^+ APCs in vivo, HLA-DR4 transgenic mice were injected with 80 μg of P10Sol or PBS, with CD11c^+ splenocytes isolated 1 h later and co-cultured with GAD65 P10 hybridomas SC3 or SC22. […]

[4] = system: steady-state CD11c+ APCs; assay: Steady state CD11c+ peptide binding assay; type: in vivo, HLA-DR4 transgenic mice; conditions: antigen added exogenously to the in vitro culture
Description: HLA-DR4 transgenic mice were injected subcutaneously with 80 μg of GAD65 P10.5.C+1.6K (GAD65 P10Sol) peptide, before isolation of CD11c^+ splenocytes 1 h later CD11c^+ positive selection kit (Miltenyi; 130-125-835). T-cell hybridoma responses were measured by secreted IL-2 after a 48 h co-culture of 0.5×10^5 CD11c^+ cells with 1×10^5 GAD65 P10-specific hybridomas with or without exogenous antigen added in vitro.
as §1

[5] = target: T1, HLA-DR4 MHC class II (HLA-DRA*0101, HLA-DRB1*0401) (human, UniProt P01903 26-254; P01911 30-266, limits assumed); assay: cell-based or functional assay
T1 MHC II alpha: not shown
T1 MHC II beta: not shown

[6] = target: TCRs of individuals with type 1 diabetes; assay: cell-based or functional assay
[7] = target: T1, HLA-DR4 MHC class II (HLA-DRA*0101, …); assay: IL-2 response of hybridoma SC3 with formaldehyde-fixed or non-fixed HLA-DR4 transgenic splenocytes
Description: as §1, with “CD11c⁺” for “CD11c^+”, “mice. Response to whole GAD65 protein required antigen processing from non-fixed splenocytes, whereas both GAD65 P10 30-mer and GAD65 P10Sol (SEQ ID NO 23) induced strong IL-2 responses from hybridoma SC3 when co-cultured with both fixed and non-fixed splenocytes (FIG. 3G).” for “mice.”

KHKWKLSGVERANSV [P10.5 15-mer]
epitope mapping by hybridoma response [1]: responsive 15-mer

KKKWKLSGVERKKK [Peptide P10.5.C.6K, KKKWKLSGVERKKK]
solubility in PBS [2]: highly soluble

KKKWKLSGVERAKKK [Peptide P10Sol, KKKWKLSGVERAKKK]
solubility in PBS [2]: highly soluble

glutamate decarboxylase 65 (GAD65) [GAD65 protein, reference compound]
hybridoma IL-2 response ([1]; hybridoma multi-clone 6 with HLA-DRB1*04:01 expressing APCs): could respond
IL-2 response from hybridoma SC3 [3]: required antigen processing from non-fixed splenocytes
IL-2 response of P10-specific hybridomas to CD11c+ cells from PBS injected mice [4]: observed

WKLSGVER [Peptide P10.5.C]
epitope mapping by hybridoma response [1]: minimal core epitope

KKKWKLSGVERAKKK [GAD65 P10.5.C+1.6K (P10Sol)]
potency of the single-clone hybridoma IL-2 response with Priess cells, against P10.5.C.6K (SEQ ID NO 22) [5]: 10 fold
FAIM+ (CD25+ CD71+ CTVmid CD4 T-cell) response of T1D patient PBMCs; share of P10 30-mer responders that also responded to P10Sol [6]: 38%

B1: GAD65 P10 30-mer (peptide)
peptide: DAAWGGGLLMSRKHKWKLSGVERANSVTWN
notes: Synthetic 30-residue fragment of human GAD65
binding result [7]: binds
